Nine molecules from patent US6048854A, “2,3-diaminopropionic acid derivative” (Sumitomo Pharmaceuticals Company, Limited, priority 1993, dated 2000) can be followed below.

Read-outs that look alike come from different tables or passages of the source.

The subject of one assay is human vitronectin. Description: Binding assay of platelet to adhesive protein: vitronectin (receptor binding inhibition). The settings on record: Table 4; fixed activated human platelets, 37° C., 60 minutes; read-out: receptor binding inhibition (IC50), Bitronectin. On the procedure:
(§1) The blood was taken out from the elbow vein of a normal volunteer, and mixed with 1/10 volume of 3.8% sodium citrate. The blood was centrifuged at 1,000 rpm (150 g) for 10 minutes, and the supernatant is collected as a platelet rich plasma (PRP). The precipitates are centrifuged at 11,000 rpm (6000 g) for two minutes, and the supernatant is collected as a platelet poor plasma (PPP). To PRP is added prostaglandin I2 (PGl2) at a final concentration of 50 ng/ml, and the mixture was centrifuged at 11000 rpm for two minutes to give human platelet. The platelet was activated by washing with 3.8 mM HEPES-buffer (pH 7.4, Tyrode-HEPES buffer) containing 0.14 M sodium chloride, 2.7 mM potassium chloride, 3.7 mM sodium dihydrogen phosphate, 0.98 mM magnesium chloride, 1 mg/ml glucose, 50 ng/ml PGl2 and 0.35% bovine serum albumin (BSA), adding thereto 5 μM epinephrine, and 30 μM ADP (adenosine diphosphate), followed by being allowed to stand at room temperature for five minutes. To the activated platelet was added 0.05% p-formaldehyde, and the mixture was allowed to stand at room temperature for 30 minutes to give the fixed platelet, which was suspended in Tyrode-HEPES buffer to give a platelet suspension of a concentration of 2×10^8 ml^-1.
(§2) Human fibrinogen from which fibronectin was previously removed by passing through gelatin-cepharose, human fibronectin or human vitronectin was diluted with 0.1 M aqueous sodium hydrogen carbonate solution to a concentration of 5 μg/ml, and the protein solution is put into a 96-well microplate at a volume of 200 μl/well. The microplate was allowed to stand at 4° C. overnight. The plate was washed with phosphate buffered saline (PBS), and subjected to blocking with 3% BSA at 37° C. for one hour. To the plate were added a platelet suspension (final concentration, 10^8 ml^-1) and a test compound of various concentrations (total volume, 200 μl/well), and the plate was incubated at 37° C. for 60 minutes. The plate was treated with 1000-fold diluted enzyme (HRP)-labelled anti-mouse IgG polyclonal antibody at 37° C. for 60 minutes, and thereto was added HRP chromogenic substrate (0.1 M phosphate buffer containing 0.4 mg/ml O-phenylenediamine,0.01% hydrogen peroxide, 0.1 M citric acid, pH 5), and reacted at room temperature for 15 minutes. The reaction was terminated by adding thereto 4.5 M sulfuric acid at a volume of 25 μl/well, and the absorbance at 490 nm was measured.

A further assay has as its target T1, human fibrinogen (Homo sapiens, UniProt P05106+P08514).
T1 construct: centrifuged at 11000 rpm for two minutes to give human platelet; from tissue
Description: Binding assay of platelet to adhesive protein: fibrinogen (receptor binding inhibition). As to conditions: Table 4; fixed activated human platelets, 37° C., 60 minutes. As for the experimental part: as §1, §2

For assay [1], the system named is platelet aggregation. Description: Platelet aggregation inhibitory activity (ADP-induced, human platelet rich plasma). Format: cell-based. The settings on record: Homo sapiens. The essentials: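 Citrated human platelet-rich plasma […] was stirred with test compound for 2 min at 37 °C. Aggregation was then induced with ADP at 3 μg/ml final and monitored by nephelometry. IC50 is the concentration giving 50% inhibition of aggregation.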

For assay [2], the system named is platelet aggregation. Nature of the assay: Platelet aggregation inhibitory activity (ex vivo) after oral administration. Format: in vivo. The settings on record: Cavia porcellus, guinea pig, oral 0.1 mg/kg, ADP 10 μg/ml. On the procedure: A canula for collecting blood was inserted into the left common carotid artery of a guinea pig which was anesthetized with pentobarbital (30 mg/kg, i.p.). The blood (1 ml) was taken with a syringe containing 1/10 volume of 3.8% sodium citrate (Kettin-citrate, manufactured by Kokusai Shiyaku Ltd.), and the platelet aggregation ability thereof was measured (as a value before administration). Then, a test compound was orally administered to the guinea pig at a dose of 0.1 mg/kg in a volume of 5 ml/kg, and the blood was collected periodically likewise at 0.5, 1, 2, 4 and 6 hours after the administration of the test compound, and the platelet aggregation ability thereof was measured.
The determination of the platelet aggregation ability was carried out by turbidimetry using a Hematracer (Niko Bioscience) as follows. That is, the blood was centrifuged at 4500 rpm at room temperature for 10 seconds, and the supernatant was considered as platelet rich plasma (PRP), and the precipitate was centrifuged at 11000 rpm for two minutes and its supernatant was considered as platelet poor plasma (PPP), and the photo-transmittance of the PRP and the PPP was adjusted to 0%, and 100%, respectively. A cubet containing PRP (200 μl) was inserted to a measurement well, and […] at 1000 rpm at 37° C. for two minutes, and thereto was added a platelet aggregator; ADP (adenosine diphosphate, Sigma Ltd., 20 μl, final concentration; 10 μg/ml), and the maximum aggregation rate was measured. From the maximum aggregation rate before the administration of the test compound (MAR control) and the maximum aggregation rate after the administration of the test compound (MAR sample), the platelet aggregation inhibitory rate of each test compound was estimated according to the following equation.
Inhibitory rate (%)=(1-(MAR sample/MAR control))×100
The periodical change in the platelet aggregation inhibitory rate of each test compound at a dose of 0.1 mg/kg of oral administration is shown in Table 5.

In another assay the test system is human fibronectin. Nature of the assay: Binding assay of platelet to adhesive protein: fibronectin (receptor binding inhibition). As to conditions: Table 4; fixed activated human platelets, 37° C., 60 minutes. On the procedure: as §1, §2
[3] abbreviates: Table 2, same manner as Example 17.
The mark [4] stands for this setting: 0.5 hr, read-out: platelet aggregation inhibitory rate (%), 0.5 hr.
Where [5] appears, read: 1 hr, read-out: platelet aggregation inhibitory rate (%), 1 hr.
Setting [6] is: 2 hrs, read-out: platelet aggregation inhibitory rate (%), 2 hrs.
The mark [7] stands for this setting: 4 hrs, read-out: platelet aggregation inhibitory rate (%), 4 hrs.
Setting [8] is: 6 hrs, read-out: platelet aggregation inhibitory rate (%), 6 hrs.
The mark [9] stands for this setting: Table 3, same manner as Example 17.

T1 sequence (P08514 32-887 limits assumed): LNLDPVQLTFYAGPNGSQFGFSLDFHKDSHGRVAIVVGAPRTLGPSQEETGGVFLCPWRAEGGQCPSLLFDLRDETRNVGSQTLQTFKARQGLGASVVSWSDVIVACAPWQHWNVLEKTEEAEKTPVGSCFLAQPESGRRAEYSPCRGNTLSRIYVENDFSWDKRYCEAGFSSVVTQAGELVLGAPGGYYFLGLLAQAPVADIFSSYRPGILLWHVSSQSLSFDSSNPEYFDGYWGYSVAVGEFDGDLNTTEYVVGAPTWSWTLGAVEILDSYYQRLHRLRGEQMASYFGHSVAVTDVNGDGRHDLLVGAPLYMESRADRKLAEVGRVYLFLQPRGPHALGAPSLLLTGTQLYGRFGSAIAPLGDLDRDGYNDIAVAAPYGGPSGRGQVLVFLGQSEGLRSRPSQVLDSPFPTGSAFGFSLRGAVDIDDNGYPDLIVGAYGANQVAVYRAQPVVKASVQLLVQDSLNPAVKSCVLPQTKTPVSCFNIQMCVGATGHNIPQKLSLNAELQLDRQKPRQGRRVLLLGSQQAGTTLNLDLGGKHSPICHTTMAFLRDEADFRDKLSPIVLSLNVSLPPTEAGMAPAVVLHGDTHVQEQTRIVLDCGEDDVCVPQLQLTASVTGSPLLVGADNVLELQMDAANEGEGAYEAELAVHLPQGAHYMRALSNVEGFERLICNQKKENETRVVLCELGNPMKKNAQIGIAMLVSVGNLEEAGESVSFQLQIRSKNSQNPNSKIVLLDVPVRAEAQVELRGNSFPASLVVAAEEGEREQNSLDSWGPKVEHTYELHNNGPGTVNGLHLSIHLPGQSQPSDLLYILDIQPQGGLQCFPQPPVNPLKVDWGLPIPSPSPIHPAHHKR
T1 sequence (P08514 891-1039 limits assumed): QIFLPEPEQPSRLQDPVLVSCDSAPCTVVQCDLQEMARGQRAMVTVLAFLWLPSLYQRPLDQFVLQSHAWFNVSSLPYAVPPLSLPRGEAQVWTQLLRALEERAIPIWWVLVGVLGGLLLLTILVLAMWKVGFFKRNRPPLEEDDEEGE
T1 sequence (P05106 27-788): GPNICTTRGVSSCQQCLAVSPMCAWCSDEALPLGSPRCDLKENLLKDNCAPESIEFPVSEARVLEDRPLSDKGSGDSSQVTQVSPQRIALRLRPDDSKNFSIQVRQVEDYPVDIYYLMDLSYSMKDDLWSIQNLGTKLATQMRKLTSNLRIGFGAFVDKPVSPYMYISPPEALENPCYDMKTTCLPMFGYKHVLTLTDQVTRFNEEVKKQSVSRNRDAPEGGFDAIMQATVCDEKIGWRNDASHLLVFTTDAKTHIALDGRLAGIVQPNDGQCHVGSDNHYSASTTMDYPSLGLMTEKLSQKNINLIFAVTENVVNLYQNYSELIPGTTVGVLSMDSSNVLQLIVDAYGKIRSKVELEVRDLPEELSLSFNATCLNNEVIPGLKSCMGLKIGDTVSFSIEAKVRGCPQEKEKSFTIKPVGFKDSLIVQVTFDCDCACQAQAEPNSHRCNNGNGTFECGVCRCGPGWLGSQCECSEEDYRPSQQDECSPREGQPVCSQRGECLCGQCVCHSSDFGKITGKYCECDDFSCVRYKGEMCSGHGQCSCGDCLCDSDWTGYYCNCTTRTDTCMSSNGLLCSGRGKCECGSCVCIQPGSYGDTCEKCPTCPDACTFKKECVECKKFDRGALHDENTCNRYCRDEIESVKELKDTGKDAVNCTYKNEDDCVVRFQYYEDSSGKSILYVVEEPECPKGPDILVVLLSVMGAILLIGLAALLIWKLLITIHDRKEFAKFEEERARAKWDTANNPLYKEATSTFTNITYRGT

Take `N=C(N)c1ccc(OCCCC(=O)NC[C@H](NS(=O)(=O)c2ccc(F)cc2)C(=O)O)cc1` [Example 61, (2S)-3-(4-(4-amidinophenoxy)butanoylamino)-2-(4-fluoro)benzenesulfonylaminopropanic Acid]: the IC50 in the assay on human vitronectin was 380 nM; at human fibrinogen, 1 nM; in the assay with platelet aggregation [1] (setting [3]), 24 nM; with human fibronectin it was 25 nM. Besides, the inhibition in vivo at 0.1 mg/kg in the assay on platelet aggregation [2] (setting [4]) came to 45%; in the assay with platelet aggregation [2] (setting [5]), 32%; in the assay on platelet aggregation [2] (setting [6]), 25%; in the assay on platelet aggregation [2] (setting [7]), 48%; with platelet aggregation [2] (setting [8]), 0%.

On to `N=C(N)c1ccc(OCCCC(=O)NC[C@H](NS(=O)(=O)c2cccc3ccccc23)C(=O)O)cc1` [Example 62, (2S)-3-(4-(4-amidinophenoxy)butanoylamino)-2-(1-naphthalene)sulfonylaminopropanoic Acid], for which the IC50 in the assay with human vitronectin amounted to 240 nM; at human fibrinogen, 1.1 nM; in the assay with platelet aggregation [1] (setting [3]), 26 nM; with human fibronectin it was 4.5 nM. The inhibition in vivo at 0.1 mg/kg in the assay on platelet aggregation [2] (setting [4]) amounted to 63%; in the assay on platelet aggregation [2] (setting [5]), 69%; in the assay with platelet aggregation [2] (setting [6]), 63%; in the assay on platelet aggregation [2] (setting [7]) it was 56%; with platelet aggregation [2] (setting [8]), 50%.

With `COc1ccc(S(=O)(=O)N[C@@H](CNC(=O)CCCCOc2ccc(C(=N)N)cc2)C(=O)O)cc1` [Example 63, (2S)-3-(5-(4-amidinophenoxy)pentanoylamino)-2-(4-methoxy)benzenesulfonylaminopropanoic Acid], the IC50 was 130 nM in the assay with human vitronectin, 2.2 nM on human fibrinogen, 15 nM with platelet aggregation [1] (setting [3]) and 41 nM with human fibronectin. For the same molecule, the inhibition in vivo at 0.1 mg/kg with platelet aggregation [2] (setting [4]) is 57%; with platelet aggregation [2] (setting [5]), 48%; with platelet aggregation [2] (setting [6]) it was 26%; with platelet aggregation [2] (setting [7]), 3%; in the assay on platelet aggregation [2] (setting [8]), 0%.

In the case of `N=C(N)c1ccc(OCCCCC(=O)NC[C@H](NS(=O)(=O)c2ccccc2)C(=O)O)cc1` [Example 64, (2S)-3-(5-(4-amidinophenoxy)pentanoylamino)-2-benzenesulfonylaminopropanoic Acid], the IC50 in the assay with human vitronectin is 4800 nM; on human fibrinogen it was 24 nM; in the assay with platelet aggregation [1] (setting [3]) it was 32 nM; in the assay with human fibronectin it was 280 nM. Besides, the inhibition in vivo at 0.1 mg/kg was found to be 50% in the assay with platelet aggregation [2] (setting [4]); 0% in the assay on platelet aggregation [2] (setting [5]); 0% with platelet aggregation [2] (setting [6]); 0% with platelet aggregation [2] (setting [7]); 0% with platelet aggregation [2] (setting [8]).

Take `N=C(N)c1ccc(N2CCC(CC(=O)NC[C@H](NS(=O)(=O)c3ccccc3)C(=O)O)CC2)cc1` [Example 69, (2S)-3-(2-(1-(4-amidinophenyl)-4-piperidyl)ethanoylamino)-2-benzenesulfonylaminopropanoic Acid]: the IC50 with human vitronectin amounted to 970 nM; at human fibrinogen, 9.8 nM; in the assay with platelet aggregation [1] (setting [3]) it was 29 nM; with human fibronectin, 60 nM. Besides, the inhibition in vivo at 0.1 mg/kg with platelet aggregation [2] (setting [4]) was determined as 69%; in the assay with platelet aggregation [2] (setting [5]), 39%; with platelet aggregation [2] (setting [6]), 22%; in the assay on platelet aggregation [2] (setting [7]) it was 6%; in the assay with platelet aggregation [2] (setting [8]), 3%.

Regarding `Cc1ccccc1S(=O)(=O)N[C@@H](CNC(=O)CCNC(=O)c1ccc(C(=N)N)cc1)C(=O)O` [Example 74, (2S)-3-(3-(4-amidinobenzoylamino)propanoylamino)-2-(2-methyl)benzenesulfonylaminopropanoic Acid], the concentration for half-maximal inhibition (IC50) came out at 3500 nM in the assay on human vitronectin, 22 nM on human fibrinogen, 14 nM in the assay on platelet aggregation [1] (setting [9]) and 540 nM in the assay with human fibronectin. Besides, the inhibition in vivo at 0.1 mg/kg with platelet aggregation [2] (setting [4]) came to 92%; in the assay with platelet aggregation [2] (setting [5]), 100%; in the assay with platelet aggregation [2] (setting [6]), 100%; in the assay with platelet aggregation [2] (setting [7]), 100%; with platelet aggregation [2] (setting [8]) it was 100%.

Take `Cc1cccc(S(=O)(=O)N[C@@H](CNC(=O)CCNC(=O)c2ccc(C(=N)N)cc2)C(=O)O)c1` [Example 75, (2S)-3-(3-(4-amidinobenzoylamino)propanoylamino)-2-(3-methyl)benzenesulfonylaminopropanoic Acid]: the concentration for half-maximal inhibition (IC50) came out at 1600 nM in the assay on human vitronectin, 8.1 nM at human fibrinogen, 34 nM with platelet aggregation [1] (setting [9]) and 110 nM in the assay with human fibronectin. Besides, the inhibition in vivo at 0.1 mg/kg with platelet aggregation [2] (setting [4]) came to 74%; with platelet aggregation [2] (setting [5]), 82%; in the assay on platelet aggregation [2] (setting [6]), 100%; with platelet aggregation [2] (setting [7]), 90%; in the assay on platelet aggregation [2] (setting [8]), 74%.

On to `Cc1ccc(S(=O)(=O)N[C@@H](CNC(=O)CCNC(=O)c2ccc(C(=N)N)cc2)C(=O)O)cc1` [Example 76, (2S)-3-(3-(4-amidinobenzoylamino)propanoylamino)-2-(4-methyl)benzenesulfonylaminopropanoic Acid], for which the IC50 came to 540 nM in the assay on human vitronectin, 6.3 nM at human fibrinogen, 17 nM in the assay on platelet aggregation [1] (setting [9]) and 510 nM in the assay on human fibronectin. For the same molecule, the inhibition in vivo at 0.1 mg/kg in the assay on platelet aggregation [2] (setting [4]), in the assay with platelet aggregation [2] (setting [5]), with platelet aggregation [2] (setting [6]), in the assay with platelet aggregation [2] (setting [7]) and in the assay with platelet aggregation [2] (setting [8]) was 100% each time.

With `N=C(N)c1ccc(C(=O)NCCC(=O)NC[C@H](NS(=O)(=O)c2ccccc2[N+](=O)[O-])C(=O)O)cc1` [Example 77, (2S)-3-(3-(4-amidinobenzoylamino)propanoylamino)-2-(2-nitro)benzenesulfonylaminopropanoic Acid], the IC50 in the assay on human vitronectin stood at 670 nM; on human fibrinogen it was 6.7 nM; in the assay with platelet aggregation [1] (setting [9]), 65 nM; in the assay with human fibronectin it was 54 nM. For the same molecule, the inhibition in vivo at 0.1 mg/kg with platelet aggregation [2] (setting [4]) stood at 100%; in the assay on platelet aggregation [2] (setting [5]), 100%; in the assay with platelet aggregation [2] (setting [6]) it was 100%; in the assay on platelet aggregation [2] (setting [7]), 100%; with platelet aggregation [2] (setting [8]), 97%.
